Measured values: ChEMBL document CHEMBL1148480, “Structure-activity studies of orexin a and orexin B at the human orexin 1 and orexin 2 receptors led to orexin 2 receptor selective and orexin 1 receptor preferring ligands” (J Med Chem, 2004)
Residues, ends and D or L forms follow the SMILES beside them.

Experiment: Ratio of orexin-1 receptor to orexin-2 receptor in human
A Ratio of over 1750 was found for `CC[C@H](C)[C@H](NC(=O)CNC(=O)[C@H](C)NC(=O)[C@H](C)NC(=O)[C@H](Cc1c[nH]cn1)NC(=O)[C@H](CC(N)=O)NC(=O)CNC(=O)[C@H](CO)NC(=O)[C@H](C)NC(=O)[C@H](CCC(N)=O)NC(=O)[C@H](CC(C)C)NC(=O)[C@H](CC(C)C)NC(=O)[C@H](CCCN=C(N)N)NC(=O)[C@H](CCC(N)=O)NC(=O)[C@H](CC(C)C)NC(=O)[C@@H](N)CCCN=C(N)N)C(=O)N[C@@H](CC(C)C)C(=O)N[C@H](C(=O)N[C@@H](CCSC)C(=O)O)[C@@H](C)O` (H-RLQRLLQASGNHAAGILTM-OH) in this work. A Ratio of 6.8 was found for `CC[C@H](C)[C@H](NC(=O)CNC(=O)[C@H](C)NC(=O)[C@H](C)NC(=O)[C@H](Cc1c[nH]cn1)NC(=O)[C@H](C)NC(=O)CNC(=O)[C@H](CO)NC(=O)[C@H](C)NC(=O)[C@H](CCC(N)=O)NC(=O)[C@H](CC(C)C)NC(=O)[C@H](CC(C)C)NC(=O)[C@H](CCCN=C(N)N)NC(=O)[C@H](CCC(N)=O)NC(=O)[C@H](CC(C)C)NC(=O)[C@H](CCCN=C(N)N)NC(=O)CNC(=O)[C@H](CCC(N)=O)NC(=O)[C@H](CC(C)C)NC(=O)CN)C(=O)N[C@@H](CC(C)C)C(=O)N[C@H](C(=O)N[C@@H](CCSC)C(=O)O)[C@@H](C)O` (stereo in doubt; form 2) in this work. A Ratio of 8.6 was found for `CC[C@H](C)[C@H](NC(=O)CNC(=O)[C@H](C)NC(=O)[C@H](C)NC(=O)[C@H](Cc1c[nH]cn1)NC(=O)[C@H](CC(N)=O)NC(=O)CNC(=O)[C@H](CO)NC(=O)[C@H](C)NC(=O)[C@H](C)NC(=O)[C@H](CC(C)C)NC(=O)[C@H](CC(C)C)NC(=O)[C@H](CCCN=C(N)N)NC(=O)[C@H](CCC(N)=O)NC(=O)[C@H](CC(C)C)NC(=O)[C@H](CCCN=C(N)N)NC(=O)CNC(=O)[C@H](CCC(N)=O)NC(=O)[C@H](CC(C)C)NC(=O)CN)C(=O)N[C@@H](CC(C)C)C(=O)N[C@H](C(=O)N[C@@H](CCSC)C(=O)O)[C@@H](C)O` (H-GLQGRLQRLLAASGNHAAGILTM-OH) in this work. A Ratio of over 280 was found for `CC[C@H](C)[C@H](NC(=O)CNC(=O)[C@@H]1CCCN1C(=O)[C@H](C)NC(=O)[C@H](Cc1c[nH]cn1)NC(=O)[C@H](CC(N)=O)NC(=O)CNC(=O)[C@H](CO)NC(=O)[C@H](C)NC(=O)[C@H](CCC(N)=O)NC(=O)[C@H](CC(C)C)NC(=O)[C@H](CC(C)C)NC(=O)[C@H](CCCN=C(N)N)NC(=O)[C@H](CCC(N)=O)NC(=O)[C@H](CC(C)C)NC(=O)[C@H](CCCN=C(N)N)NC(=O)CNC(=O)[C@H](CCC(N)=O)NC(=O)[C@H](CC(C)C)NC(=O)CN)C(=O)N[C@@H](CC(C)C)C(=O)N[C@H](C(=O)N[C@@H](CCSC)C(=O)O)[C@@H](C)O` (H-GLQGRLQRLLQASGNHAPGILTM-OH) in this work. A Ratio of over 430 was found for `CC[C@H](C)[C@H](NC(=O)CNC(=O)[C@H](C)NC(=O)[C@H](C)NC(=O)[C@H](Cc1c[nH]cn1)NC(=O)[C@H](CC(N)=O)NC(=O)CNC(=O)[C@H](CO)NC(=O)[C@H](C)NC(=O)[C@H](CCC(N)=O)NC(=O)[C@H](C)NC(=O)[C@H](CC(C)C)NC(=O)[C@H](CCCN=C(N)N)NC(=O)[C@H](CCC(N)=O)NC(=O)[C@H](CC(C)C)NC(=O)[C@H](CCCN=C(N)N)NC(=O)CNC(=O)[C@H](CCC(N)=O)NC(=O)[C@H](CC(C)C)NC(=O)CN)C(=O)N[C@@H](CC(C)C)C(=O)N[C@H](C(=O)N[C@@H](CCSC)C(=O)O)[C@@H](C)O` (H-GLQGRLQRLAQASGNHAAGILTM-OH) in this work. A Ratio of 4.3 was found for `CC[C@H](C)[C@H](NC(=O)CNC(=O)[C@H](C)NC(=O)[C@H](C)NC(=O)[C@H](Cc1c[nH]cn1)NC(=O)[C@H](CC(N)=O)NC(=O)CNC(=O)[C@H](C)NC(=O)CNC(=O)[C@H](Cc1c[nH]cn1)NC(=O)[C@H](CC(C)C)NC(=O)[C@H](CC(C)C)NC(=O)[C@H](CCC(=O)O)NC(=O)[C@H](Cc1ccc(O)cc1)NC(=O)[C@H](CC(C)C)NC(=O)[C@@H](N)CCCN=C(N)N)C(=O)N[C@@H](CC(C)C)C(=O)N[C@H](C(=O)N[C@@H](CC(C)C)C(=O)O)[C@@H](C)O` (H-RLYELLHGAGNHAAGILTL-OH) in this work. A Ratio of 6.8 was found for `CC[C@H](C)[C@H](NC(=O)CNC(=O)[C@H](C)NC(=O)[C@H](C)NC(=O)[C@H](Cc1c[nH]cn1)NC(=O)[C@H](CC(N)=O)NC(=O)CNC(=O)[C@H](CO)NC(=O)[C@H](C)NC(=O)[C@H](CCC(N)=O)NC(=O)[C@H](CC(C)C)NC(=O)[C@H](CC(C)C)NC(=O)[C@H](CCCN=C(N)N)NC(=O)[C@H](CCC(N)=O)NC(=O)[C@H](CC(C)C)NC(=O)[C@H](CCCN=C(N)N)NC(=O)CNC(=O)[C@H](C)NC(=O)[C@H](CC(C)C)NC(=O)CN)C(=O)N[C@@H](CC(C)C)C(=O)N[C@H](C(=O)N[C@@H](CCSC)C(=O)O)[C@@H](C)O` (H-GLAGRLQRLLQASGNHAAGILTM-OH) in this work. A Ratio of over 230 was found for `CC[C@H](C)[C@H](NC(=O)CNC(=O)[C@H](C)NC(=O)[C@@H]1CCCN1C(=O)[C@H](Cc1c[nH]cn1)NC(=O)[C@H](CC(N)=O)NC(=O)CNC(=O)[C@H](CO)NC(=O)[C@H](C)NC(=O)[C@H](CCC(N)=O)NC(=O)[C@H](CC(C)C)NC(=O)[C@H](CC(C)C)NC(=O)[C@H](CCCN=C(N)N)NC(=O)[C@H](CCC(N)=O)NC(=O)[C@H](CC(C)C)NC(=O)[C@H](CCCN=C(N)N)NC(=O)CNC(=O)[C@H](CCC(N)=O)NC(=O)[C@H](CC(C)C)NC(=O)CN)C(=O)N[C@@H](CC(C)C)C(=O)N[C@H](C(=O)N[C@@H](CCSC)C(=O)O)[C@@H](C)O` (H-GLQGRLQRLLQASGNHPAGILTM-OH) in this work. A Ratio of 2.3 was found for `CC[C@H](C)[C@H](NC(=O)CNC(=O)[C@H](C)NC(=O)[C@H](C)NC(=O)[C@H](Cc1c[nH]cn1)NC(=O)[C@H](CC(N)=O)NC(=O)CNC(=O)[C@H](C)NC(=O)CNC(=O)[C@H](Cc1c[nH]cn1)NC(=O)[C@H](CC(C)C)NC(=O)[C@H](CC(C)C)NC(=O)[C@H](CCC(=O)O)NC(=O)[C@H](Cc1ccc(O)cc1)NC(=O)[C@H](CC(C)C)NC(=O)[C@H](CCCN=C(N)N)NC(=O)[C@H](CS)NC(=O)[C@H](CO)NC(=O)[C@H](CS)NC(=O)[C@@H](NC(=O)[C@H](CCCCN)NC(=O)[C@H](CCC(N)=O)NC(=O)[C@@H](N)CCCN=C(N)N)[C@@H](C)O)C(=O)N[C@@H](CC(C)C)C(=O)N[C@H](C(=O)N[C@@H](CC(C)C)C(=O)O)[C@@H](C)O` (H-RQKTCSCRLYELLHGAGNHAAGILTL-OH) in this work. A Ratio of 15 was found for `CC[C@H](C)[C@H](NC(=O)CNC(=O)[C@H](C)NC(=O)[C@H](C)NC(=O)[C@H](Cc1c[nH]cn1)NC(=O)[C@H](CC(N)=O)NC(=O)CNC(=O)[C@H](CO)NC(=O)[C@H](C)NC(=O)[C@H](CCC(N)=O)NC(=O)[C@H](CC(C)C)NC(=O)[C@H](CC(C)C)NC(=O)[C@H](CCCN=C(N)N)NC(=O)[C@@H]1CCCN1C(=O)[C@H](CC(C)C)NC(=O)[C@H](CCCN=C(N)N)NC(=O)CNC(=O)[C@H](CCC(N)=O)NC(=O)[C@H](CC(C)C)NC(=O)CN)C(=O)N[C@@H](CC(C)C)C(=O)N[C@H](C(=O)N[C@@H](CCSC)C(=O)O)[C@@H](C)O` (stereo in doubt; form 2) in this work. A Ratio of 28.3 was found for `CC[C@H](C)[C@H](NC(=O)CNC(=O)[C@H](C)NC(=O)[C@H](C)NC(=O)[C@H](Cc1c[nH]cn1)NC(=O)[C@H](CC(N)=O)NC(=O)CNC(=O)[C@H](CO)NC(=O)[C@H](C)NC(=O)[C@H](CCC(N)=O)NC(=O)[C@H](CC(C)C)NC(=O)[C@H](CC(C)C)NC(=O)[C@H](CCCN=C(N)N)NC(=O)[C@H](CCC(N)=O)NC(=O)[C@H](CC(C)C)NC(=O)[C@H](CCCN=C(N)N)NC(=O)CNC(=O)[C@H](CCC(N)=O)NC(=O)[C@@H]1CCCN1C(=O)CN)C(=O)N[C@@H](CC(C)C)C(=O)N[C@H](C(=O)N[C@@H](CCSC)C(=O)O)[C@@H](C)O` (H-GPQGRLQRLLQASGNHAAGILTM-OH) in this work. A Ratio of 2.9 was found for `CC[C@H](C)[C@H](NC(=O)CNC(=O)[C@H](C)NC(=O)[C@H](C)NC(=O)[C@H](Cc1c[nH]cn1)NC(=O)[C@H](CC(N)=O)NC(=O)CNC(=O)[C@H](C)NC(=O)CNC(=O)[C@H](Cc1c[nH]cn1)NC(=O)[C@H](CC(C)C)NC(=O)[C@H](CC(C)C)NC(=O)[C@H](CCC(=O)O)NC(=O)[C@H](Cc1ccc(O)cc1)NC(=O)[C@H](CC(C)C)NC(=O)[C@H](CCCN=C(N)N)NC(=O)[C@H](CSSC[C@H](NC(=O)[C@@H](N)CO)C(=O)N[C@@H](CCCN=C(N)N)C(=O)N[C@@H](CC(C)C)C(=O)N[C@@H](Cc1ccc(O)cc1)C(=O)N[C@@H](CCC(=O)O)C(=O)N[C@@H](CC(C)C)C(=O)N[C@@H](CC(C)C)C(=O)N[C@@H](Cc1c[nH]cn1)C(=O)NCC(=O)N[C@@H](C)C(=O)NCC(=O)N[C@@H](CC(N)=O)C(=O)N[C@@H](Cc1c[nH]cn1)C(=O)N[C@@H](C)C(=O)N[C@@H](C)C(=O)NCC(=O)N[C@H](C(=O)N[C@@H](CC(C)C)C(=O)N[C@H](C(=O)N[C@@H](CC(C)C)C(=O)O)[C@@H](C)O)[C@@H](C)CC)NC(=O)[C@@H](N)CO)C(=O)N[C@@H](CC(C)C)C(=O)N[C@H](C(=O)N[C@@H](CC(C)C)C(=O)O)[C@@H](C)O` in this work. A Ratio of 18.8 was found for `CC[C@H](C)[C@H](NC(=O)CNC(=O)[C@H](C)NC(=O)[C@H](C)NC(=O)[C@H](Cc1c[nH]cn1)NC(=O)[C@H](CC(N)=O)NC(=O)CNC(=O)[C@H](CO)NC(=O)[C@H](C)NC(=O)[C@H](CCC(N)=O)NC(=O)[C@H](CC(C)C)NC(=O)[C@H](CC(C)C)NC(=O)[C@H](CCCN=C(N)N)NC(=O)[C@@H]1CCCN1C(=O)[C@H](CC(C)C)NC(=O)[C@H](CCCN=C(N)N)NC(=O)CNC(=O)[C@H](CCC(N)=O)NC(=O)[C@H](CC(C)C)NC(=O)CN)C(=O)N[C@@H](CC(C)C)C(=O)N[C@H](C(=O)N[C@@H](CCSC)C(=O)O)[C@@H](C)O` (stereo in doubt; form 1) in this work. A Ratio of over 65 was found for `CC[C@H](C)[C@H](NC(=O)CNC(=O)[C@H](C)NC(=O)[C@H](C)NC(=O)[C@H](Cc1c[nH]cn1)NC(=O)[C@H](CC(N)=O)NC(=O)CNC(=O)[C@H](CO)NC(=O)[C@H](C)NC(=O)[C@H](CCC(N)=O)NC(=O)[C@H](CC(C)C)NC(=O)[C@H](CC(C)C)NC(=O)[C@H](CCCN=C(N)N)NC(=O)[C@H](CCC(N)=O)NC(=O)[C@H](CC(C)C)NC(=O)[C@H](CCCN=C(N)N)NC(=O)CNC(=O)[C@H](CCC(N)=O)NC(=O)[C@H](CC(C)C)NC(=O)CN)C(=O)N[C@@H](C)C(=O)N[C@H](C(=O)N[C@@H](CCSC)C(=O)O)[C@@H](C)O` (H-GLQGRLQRLLQASGNHAAGIATM-OH) in this work.
